From US9187428B2, “Substituted dicyanopyridines and use thereof” (Bayer Intellectual Property GmbH, priority 2010, dated 2015)

Tests used:
adenosine A1 receptor = adenosine A1 receptor (Homo sapiens (Human), UniProt P30542); assay: Indirect determination of adenosine agonism by gene expression (luciferase reporter), A1 cells; type: cell-based; settings: CHO cells stably transfected with adenosine A1 receptor; 1 μM forskolin; 50% inhibition of luciferase response
Source text: (§1) B-1. Indirect Determination of the Adenosine Agonism by Way of Gene Expression
(§2) Cells of the CHO (Chinese Hamster Ovary) permanent line are transfected stably with the cDNA for the adenosine receptor subtypes A1, A2a and A2b. The adenosine A1 receptors are coupled to the adenylate cyclase by way of Gi proteins, while the adenosine A2a and A2b receptors are coupled by way of Gs proteins. In correspondence with this, the formation of cAMP in the cell is inhibited or stimulated, respectively. After that, expression of the luciferase is modulated by way of a cAMP-dependent promoter. The luciferase test is optimized, with the aim of high sensitivity and reproducibility, low variance and good suitability for implementation on a robot system, by varying several test parameters, such as cell density, duration of the growth phase and the test incubation, forskolin concentration and medium composition. The following test protocol is used for pharmacologically characterizing cells and for the robot-assisted substance screening:
(§3) The stock cultures are grown, at 37° C. and under 5% CO2, in DMEM/F12 medium containing 10% FCS (fetal calf serum) and in each case split 1:10 after 2-3 days. Test cultures are seeded in 384-well plates with 2000 cells per well and grown at 37° C. for approx. 48 hours. The medium is then replaced with a physiological sodium chloride solution (130 mM sodium chloride, 5 mM potassium chloride, 2 mM calcium chloride, 20 mM HEPES, 1 mM magnesium chloride hexahydrate, 5 mM sodium bicarbonate, pH 7.4). The substances to be tested, which are dissolved in DMSO, are pipetted into the test cultures (maximum final concentration of DMSO in the test mixture: 0.5%) in a dilution series of from 5×10^−11 M to 3×10^−6 M (final concentration). 10 minutes later, forskolin is added to the A1 cells and all the cultures are subsequently incubated at 37° C. for four hours. After that, 35 μl of a solution which is composed of 50% lysis reagent (30 mM disodium hydrogenphosphate, 10% glycerol, 3% TritonX100, 25 mM TrisHCl, 2 mM dithiotreitol (DTT), pH 7.8) and 50% luciferase substrate solution (2.5 mM ATP, 0.5 mM luciferin, 0.1 mM coenzyme A, 10 mM tricine, 1.35 mM magnesium sulfate, 15 mM DTT, pH 7.8) are added to the test cultures, which are shaken for approx. 1 minute and the luciferase activity is measured using a camera system. The EC50 values are determined, i.e., the concentrations at which 50% of the luciferase response is inhibited in the case of the A1 cell, and, respectively, 50% of the maximum stimulation with the corresponding substance is achieved in the case of the A2b and A2a cells. […] Pharmacol., 357, 1-9 (1998)].
(§4) Table A below lists the EC50 values of representative working examples for the receptor stimulation on adenosine A1, A2a and A2b receptor subtypes: […]

adenosine A2a receptor = adenosine A2a receptor (Homo sapiens (Human), UniProt P29274); assay: Indirect determination of adenosine agonism by gene expression (luciferase reporter), A2a cells; type: cell-based; settings: CHO cells stably transfected with adenosine A2a receptor, 50% of maximum stimulation
adenosine A2a receptor, sequence (P29274 whole entry): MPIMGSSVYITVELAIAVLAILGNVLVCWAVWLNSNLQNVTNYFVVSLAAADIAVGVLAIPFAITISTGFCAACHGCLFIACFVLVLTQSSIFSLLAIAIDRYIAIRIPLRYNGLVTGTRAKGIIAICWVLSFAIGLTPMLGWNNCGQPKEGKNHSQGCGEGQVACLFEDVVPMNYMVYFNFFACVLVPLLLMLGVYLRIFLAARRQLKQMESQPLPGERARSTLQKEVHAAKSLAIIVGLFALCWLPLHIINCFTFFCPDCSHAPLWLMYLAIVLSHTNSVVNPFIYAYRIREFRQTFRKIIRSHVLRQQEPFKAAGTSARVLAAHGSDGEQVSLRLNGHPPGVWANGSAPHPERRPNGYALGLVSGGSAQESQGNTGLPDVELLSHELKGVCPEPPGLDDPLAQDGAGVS
Source text: as §1, §2, §3, §4

adenosine A1 receptor, sequence (P30542 whole entry): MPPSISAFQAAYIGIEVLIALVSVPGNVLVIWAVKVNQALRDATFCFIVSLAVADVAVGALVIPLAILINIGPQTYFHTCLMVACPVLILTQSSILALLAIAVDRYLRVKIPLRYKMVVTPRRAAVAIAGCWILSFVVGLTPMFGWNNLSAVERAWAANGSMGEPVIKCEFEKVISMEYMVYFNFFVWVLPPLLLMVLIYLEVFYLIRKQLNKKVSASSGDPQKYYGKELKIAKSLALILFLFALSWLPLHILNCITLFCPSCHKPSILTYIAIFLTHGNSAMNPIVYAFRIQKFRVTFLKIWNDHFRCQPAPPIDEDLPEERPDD

SMILES	EC50 (adenosine A1 receptor) [nM]	EC50 (adenosine A2a receptor) [nM]
CNC(=O)c1cc(CSc2nc(N)c(C#N)c(-c3ccc(F)cc3)c2C#N)ccn1 [Example 2]	0.3	
CNC(=O)c1cc(CSc2nc(N)c(C#N)c(-c3ccc(OC)cc3)c2C#N)ccn1 [Example 3]	0.2	425
N#Cc1c(N)nc(SCc2cccc(C(=O)O)c2)c(C#N)c1-c1ccc(F)cc1 [Example 14, 3-({[6-amino-3,5-dicyano-4-(4-fluorophenyl)pyridin-2-yl]sulfanyl}methyl)-benzenecarboxylic acid]	3.5	
CNC(=O)c1cc(COc2nc(N)c(C#N)c(-c3ccc(F)cc3)c2C#N)ccn1 [Example 21, 4-({[6-Amino-3,5-dicyano-4-(4-fluorophenyl)pyridin-2-yl]oxy}methyl)-N-methylpyridine-2-carboxamide]	0.9	
CNC(=O)c1cc(CSc2nc(N)c(C#N)c(-c3ccc(F)c(OC)c3)c2C#N)ccn1 [Example 27]	0.3	
CNC(=O)c1cc(CSc2nc(N)c(C#N)c(-c3ccc(NC)cc3)c2C#N)ccn1 [Example 28]	0.4	1640
CNC(=O)c1cc(CSc2nc(N)c(C#N)c(-c3cccc(OCCO)c3)c2C#N)ccn1 [Example 29]	0.5	
CS(=O)(=O)Nc1cccc(CSc2nc(N)c(C#N)c(-c3ccc(F)cc3)c2C#N)c1 [Example 37]	0.7	1780
CS(=O)(=O)Nc1cccc(CSc2nc(N)c(C#N)c(-c3ccc(F)c(F)c3)c2C#N)c1 [Example 38]	0.5	
CNC(=O)c1cc(CSc2nc(N)c(C#N)c(-c3ccc(OC)cc3OC)c2C#N)ccn1 [Example 44]	0.4	
CCCOc1cccc(-c2c(C#N)c(N)nc(SCc3ccnc(C(=O)NC)c3)c2C#N)c1 [Example 49]	0.3	
CNC(=O)c1cc(CSc2nc(N)c(C#N)c(-c3ccc(F)c(C(F)(F)F)c3)c2C#N)ccn1 [Example 50]	0.5	
CNC(=O)c1cc(CSc2nc(N)c(C#N)c(-c3cc(F)cc(F)c3)c2C#N)ccn1 [Example 51]	0.2	
CNC(=O)c1cc(CSc2nc(N)c(C#N)c(-c3ccc(F)c(F)c3)c2C#N)ccn1 [Example 53]	0.3	
N#Cc1cnc(SCc2cccc(C(=O)NCCO)c2)c(C#N)c1-c1ccccc1 [Example 66, 3-{[(3,5-Dicyano-4-phenylpyridin-2-yl)sulfanyl]methyl}-N-(2-hydroxyethyl)benzenecarboxamide]	1.3	
CNC(=O)c1cc(CSc2nc(N3CC(O)C3)c(C#N)c(-c3ccc(OC)cc3)c2C#N)ccn1 [Example 72]	0.5	
CNC(=O)c1cc(CSc2nc(N3CC(O)C3)c(C#N)c(-c3ccc(F)c(F)c3)c2C#N)ccn1 [Example 74]	2.4	
CNC(=O)c1cc(CSc2nc(N3CC[C@@H](O)C3)c(C#N)c(-c3ccc4c(c3)OCCO4)c2C#N)ccn1 [Example 82]	0.2	1980
CNC(=O)c1cc(CSc2nc(NCCO)c(C#N)c(-c3ccc(OC)cc3)c2C#N)ccn1 [Example 84]	0.4	
N#Cc1c(SCc2ccnc(C(=O)NC3CC3)c2)nc(N2CCCC2)c(C#N)c1-c1ccccc1 [Example 85]	0.5	1020
CNC(=O)c1cc(CSc2nc(NCC(O)C(F)(F)F)c(C#N)c(-c3ccccc3)c2C#N)ccn1 (stereo not drawn) [Example 87]	0.6	
CNC(=O)c1cc(CSc2nc(NCCO)c(C#N)c(-c3ccccn3)c2C#N)ccn1 [Example 88]	0.7	1980
CNC(=O)c1cc(COc2nc(N3CC(O)C3)c(C#N)c(-c3ccccc3)c2C#N)ccn1 [Example 93, 4-({[3,5-Dicyano-6-(3-hydroxyazetidin-1-yl)-4-phenylpyridin-2-yl]oxy}methyl)-N-methylpyridine-2-carboxamide]	0.9	
CNC(=O)c1cccc(CSc2nc(N3CC[C@@H](O)C3)c(C#N)c(-c3ccc(OCCO)cc3)c2C#N)c1 [Example 94, 3-[({3,5-Dicyano-4-[4-(2-hydroxyethoxy)phenyl]-6-[(3R)-3-hydroxypyrrolidin-1-yl]pyridin-2-yl}-sulfanyl)methyl]-N-methylbenzenecarboxamide]	0.2	
